Laboratory results published in PubChem BioAssay AID1918938 (Molecular Pharmacology Branch, DTP, NCI, 2023).

Tested on: 556581-035-R-J1-PDC complex spheroid viability
Test: Anticancer human tumor 556581-035-R-J1-PDC patient-derived ovarian carcinoma cell line growth inhibition
Conditions: for IC50: curve of first compound; for viability, T/C: stronger effect = lower value; active = viability on the fitted dose curve at most 10% of control; inactive = the rest
Summary of the method: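 Multicellular complex spheroids of tumor cells with human endothelial cells (HUVEC) and mesenchymal stem cells; the LSD1 inhibitor iadademstat was combined with standard-of-care or investigational agents. Top concentration at or near clinical Cmax, half-log dilutions; final DMSO ≤0.25%.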

[1] = second compound 0.1 µM, first compound 0.0316 µM
[2] = second compound 0.1 µM, first compound 0.1 µM
[3] = second compound 0.1 µM, first compound 0.316 µM
[4] = second compound 0.1 µM, first compound 1 µM
[5] = second compound 0.1 µM, first compound 3.16 µM
[6] = second compound 0.1 µM, first compound 10 µM
[7] = second compound 0.316 µM, first compound 0.0316 µM
[8] = second compound 0.316 µM, first compound 0.1 µM
[9] = second compound 0.316 µM, first compound 0.316 µM
[10] = second compound 0.316 µM, first compound 1 µM
[11] = second compound 0.316 µM, first compound 3.16 µM
[12] = second compound 0.316 µM, first compound 10 µM
[13] = second compound 1 µM, first compound 0.0316 µM
[14] = second compound 1 µM, first compound 0.1 µM
[15] = second compound 1 µM, first compound 0.316 µM
[16] = second compound 1 µM, first compound 1 µM
[17] = second compound 1 µM, first compound 3.16 µM
[18] = second compound 1 µM, first compound 10 µM
[19] = second compound 3.16 µM, first compound 0.0316 µM
[20] = second compound 3.16 µM, first compound 0.1 µM
[21] = second compound 3.16 µM, first compound 0.316 µM
[22] = second compound 3.16 µM, first compound 1 µM
[23] = second compound 3.16 µM, first compound 3.16 µM
[24] = second compound 3.16 µM, first compound 10 µM
[25] = second compound 10 µM, first compound 0.0316 µM
[26] = second compound 10 µM, first compound 0.1 µM
[27] = second compound 10 µM, first compound 0.316 µM
[28] = second compound 10 µM, first compound 1 µM
[29] = second compound 10 µM, first compound 3.16 µM
[30] = second compound 10 µM, first compound 10 µM
[31] = second compound 0.1 µM, first compound 0.00316 µM
[32] = second compound 0.1 µM, first compound 0.01 µM
[33] = second compound 0.316 µM, first compound 0.00316 µM
[34] = second compound 0.316 µM, first compound 0.01 µM
[35] = second compound 1 µM, first compound 0.00316 µM
[36] = second compound 1 µM, first compound 0.01 µM
[37] = second compound 3.16 µM, first compound 0.00316 µM
[38] = second compound 3.16 µM, first compound 0.01 µM
[39] = second compound 10 µM, first compound 0.00316 µM
[40] = second compound 10 µM, first compound 0.01 µM
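Note: spheroids exposed to agents for seven days.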
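Throughout, for viability, T/C: 100% = DMSO vehicle control wells.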

CC(C)c1c(-c2ccccc2)nc2c(C#N)c[nH]n2c1=O + NC1CC1c1ccc(-c2cccc(O)c2)cc1
> 10000 nM: IC50 (second compound 0.1 µM) | IC50 (second compound 0.316 µM) | IC50 (second compound 1 µM) | IC50 (second compound 3.16 µM) | IC50 (second compound 10 µM)
inactive: viability, T/C [1] 100% | viability, T/C [2] 103% | viability, T/C [3] 95.8% | viability, T/C [4] 89.3% | viability, T/C [5] 88.8% | viability, T/C [6] 64% | viability, T/C [7] 90.6% | viability, T/C [8] 82.5% | viability, T/C [9] 86.4% | viability, T/C [10] 85.2% | viability, T/C [11] 73.6% | viability, T/C [12] 79.9% | viability, T/C [13] 96.4% | viability, T/C [14] 101% | viability, T/C [15] 79.7% | viability, T/C [16] 76.5% | viability, T/C [17] 69.8% | viability, T/C [18] 60.2% | viability, T/C [19] 85.6% | viability, T/C [20] 82.5% | viability, T/C [21] 84.8% | viability, T/C [22] 86.7% | viability, T/C [23] 77.9% | viability, T/C [24] 69.3% | viability, T/C [25] 92.6% | viability, T/C [26] 91.2% | viability, T/C [27] 89.4% | viability, T/C [28] 75.4% | viability, T/C [29] 66.1% | viability, T/C [30] 59.6%

CC1COCCN1c1cc(-c2ccnn2C)c2ccnc(-c3ccn[nH]3)c2n1 (stereo not given) + NC1CC1c1ccc(-c2cccc(O)c2)cc1
5.22 nM: IC50 (second compound 0.1 µM)
8.98 nM: IC50 (second compound 10 µM)
3.3 nM: IC50 (second compound 1 µM)
4.45 nM: IC50 (second compound 0.316 µM)
5.31 nM: IC50 (second compound 3.16 µM)
inactive: viability, T/C [31] 54.8% | viability, T/C [32] 44% | viability, T/C [1] 33.5% | viability, T/C [2] 25.4% | viability, T/C [3] 21.7% | viability, T/C [4] 10.2% | viability, T/C [33] 51.2% | viability, T/C [34] 47.9% | viability, T/C [7] 33.4% | viability, T/C [8] 23.8% | viability, T/C [9] 23% | viability, T/C [10] 10.6% | viability, T/C [35] 49.5% | viability, T/C [36] 47.1% | viability, T/C [13] 34.3% | viability, T/C [14] 26.4% | viability, T/C [15] 26.1% | viability, T/C [16] 9.41% | viability, T/C [37] 54.6% | viability, T/C [38] 44.5% | viability, T/C [19] 38.5% | viability, T/C [20] 29.2% | viability, T/C [21] 26.9% | viability, T/C [22] 11% | viability, T/C [39] 55.3% | viability, T/C [40] 49.9% | viability, T/C [25] 36.4% | viability, T/C [26] 29.7% | viability, T/C [27] 26% | viability, T/C [28] 25.6%

COc1ccc([C@@H](O)c2cc(-c3ncnc4cc(N5CCOCC5)ccc34)c(F)cc2Cl)nn1 + NC1CC1c1ccc(-c2cccc(O)c2)cc1
932 nM: IC50 (second compound 0.316 µM)
853 nM: IC50 (second compound 0.1 µM)
inactive: viability, T/C [1] 102% | viability, T/C [2] 87% | viability, T/C [3] 68.2% | viability, T/C [4] 46.3% | viability, T/C [5] 34.5% | viability, T/C [6] 26.9% | viability, T/C [7] 85.2% | viability, T/C [8] 75.9% | viability, T/C [9] 62.7% | viability, T/C [10] 48.4% | viability, T/C [11] 37.9% | viability, T/C [12] 27.3% | viability, T/C [13] 82.5% | viability, T/C [14] 79.8% | viability, T/C [15] 55.1% | viability, T/C [16] 52.6% | viability, T/C [17] 38.7% | viability, T/C [18] 25.3% | viability, T/C [19] 82.8% | viability, T/C [20] 84.2% | viability, T/C [21] 64.5% | viability, T/C [22] 39.7% | viability, T/C [23] 34% | viability, T/C [24] 30.1% | viability, T/C [25] 97.4% | viability, T/C [26] 79.6% | viability, T/C [27] 64.8% | viability, T/C [28] 48.5% | viability, T/C [29] 41.3% | viability, T/C [30] 24.4%
1050 nM: IC50 (second compound 10 µM)
621 nM: IC50 (second compound 3.16 µM)
1000 nM: IC50 (second compound 1 µM)

O=C(C=Cn1cnc(-c2cc(C(F)(F)F)cc(C(F)(F)F)c2)n1)NNc1cnccn1 + NC1CC1c1ccc(-c2cccc(O)c2)cc1
80.1 nM: IC50 (second compound 10 µM)
40.6 nM: IC50 (second compound 0.1 µM)
active: viability, T/C [4] 6.78% | viability, T/C [10] 4.35% | viability, T/C [22] 8%
73.4 nM: IC50 (second compound 3.16 µM)
inactive: viability, T/C [31] 68% | viability, T/C [32] 63.7% | viability, T/C [1] 52.4% | viability, T/C [2] 38.5% | viability, T/C [3] 16.9% | viability, T/C [33] 74.5% | viability, T/C [34] 73.1% | viability, T/C [7] 61.4% | viability, T/C [8] 32.6% | viability, T/C [9] 22.7% | viability, T/C [35] 76.9% | viability, T/C [36] 74.2% | viability, T/C [13] 72.3% | viability, T/C [14] 40.1% | viability, T/C [15] 17.2% | viability, T/C [16] 10.3% | viability, T/C [37] 73.1% | viability, T/C [38] 74.3% | viability, T/C [19] 61% | viability, T/C [20] 43.7% | viability, T/C [21] 28% | viability, T/C [39] 71.3% | viability, T/C [40] 77.7% | viability, T/C [25] 56.5% | viability, T/C [26] 52.3% | viability, T/C [27] 20.2% | viability, T/C [28] 13.4%
51.3 nM: IC50 (second compound 0.316 µM)
70.5 nM: IC50 (second compound 1 µM)

COc1cc(C2c3cc4c(cc3C(OC3OC5COC(C)OC5C(O)C3O)C3COC(=O)C23)OCO4)cc(OC)c1O (stereo not given) + NC1CCC(NC2CC2c2ccccc2)CC1
451 nM: IC50 (second compound 0.316 µM)
501 nM: IC50 (second compound 3.16 µM)
481 nM: IC50 (second compound 0.1 µM)
559 nM: IC50 (second compound 1 µM)
330 nM: IC50 (second compound 10 µM)
inactive: viability, T/C (second compound 0.1 µM, first compound 0.00949 µM) 86.7% | viability, T/C (second compound 0.1 µM, first compound 0.03 µM) 84.7% | viability, T/C (second compound 0.1 µM, first compound 0.0949 µM) 68.6% | viability, T/C (second compound 0.1 µM, first compound 0.3 µM) 55.5% | viability, T/C (second compound 0.1 µM, first compound 0.949 µM) 42.3% | viability, T/C (second compound 0.1 µM, first compound 3 µM) 26.2% | viability, T/C (second compound 0.316 µM, first compound 0.00949 µM) 107% | viability, T/C (second compound 0.316 µM, first compound 0.03 µM) 84.7% | viability, T/C (second compound 0.316 µM, first compound 0.0949 µM) 75.3% | viability, T/C (second compound 0.316 µM, first compound 0.3 µM) 58.6% | viability, T/C (second compound 0.316 µM, first compound 0.949 µM) 36.1% | viability, T/C (second compound 0.316 µM, first compound 3 µM) 23.9% | viability, T/C (second compound 1 µM, first compound 0.00949 µM) 76.8% | viability, T/C (second compound 1 µM, first compound 0.03 µM) 76.2% | viability, T/C (second compound 1 µM, first compound 0.0949 µM) 68.3% | viability, T/C (second compound 1 µM, first compound 0.3 µM) 58.8% | viability, T/C (second compound 1 µM, first compound 0.949 µM) 42.6% | viability, T/C (second compound 1 µM, first compound 3 µM) 19.2% | viability, T/C (second compound 3.16 µM, first compound 0.00949 µM) 88.6% | viability, T/C (second compound 3.16 µM, first compound 0.03 µM) 66.5% | viability, T/C (second compound 3.16 µM, first compound 0.0949 µM) 74.9% | viability, T/C (second compound 3.16 µM, first compound 0.3 µM) 53.5% | viability, T/C (second compound 3.16 µM, first compound 0.949 µM) 45.8% | viability, T/C (second compound 3.16 µM, first compound 3 µM) 23.4% | viability, T/C (second compound 10 µM, first compound 0.00949 µM) 71.3% | viability, T/C (second compound 10 µM, first compound 0.03 µM) 68.4% | viability, T/C (second compound 10 µM, first compound 0.0949 µM) 68.7% | viability, T/C (second compound 10 µM, first compound 0.3 µM) 48.3% | viability, T/C (second compound 10 µM, first compound 0.949 µM) 38.8% | viability, T/C (second compound 10 µM, first compound 3 µM) 28.4%

Nc1ncn(C2CC(O)C(CO)O2)c(=O)n1 (stereo not given) + NC1CCC(NC2CC2c2ccccc2)CC1
inactive: viability, T/C [31] 96% | viability, T/C [32] 98% | viability, T/C [1] 87.2% | viability, T/C [2] 80% | viability, T/C [3] 79.3% | viability, T/C [4] 77.2% | viability, T/C [33] 87.8% | viability, T/C [34] 90.2% | viability, T/C [7] 84% | viability, T/C [8] 82.2% | viability, T/C [9] 79.1% | viability, T/C [10] 77.7% | viability, T/C [35] 96.5% | viability, T/C [36] 84.3% | viability, T/C [13] 89.5% | viability, T/C [14] 75.2% | viability, T/C [15] 71.8% | viability, T/C [16] 76.8% | viability, T/C [37] 88.9% | viability, T/C [38] 84.5% | viability, T/C [19] 82.7% | viability, T/C [20] 67.2% | viability, T/C [21] 80.5% | viability, T/C [22] 76.7% | viability, T/C [39] 73.8% | viability, T/C [40] 82.5% | viability, T/C [25] 76.4% | viability, T/C [26] 70.8% | viability, T/C [27] 65.9% | viability, T/C [28] 64.7%
> 1000 nM: IC50 (second compound 0.1 µM) | IC50 (second compound 0.316 µM) | IC50 (second compound 1 µM) | IC50 (second compound 3.16 µM) | IC50 (second compound 10 µM)
